The values that follow come from ChEMBL document CHEMBL4304802, “Novel promising 4-anilinoquinazoline-based derivatives as multi-target RTKs inhibitors: Design, molecular docking, synthesis, and antitumor activities in vitro and vivo” (Bioorg Med Chem, 2019).

The subject of one series is DU-145. Briefly: Antiproliferative activity against human DU145 cells incubated for 72 hrs by MTT assay. Conditions: DU-145, 72 h. The class given is functional, cell-based. In general terms: Tetrazolium assays rely on reduction of a dye to a coloured formazan, in cell work by metabolically active cells.
Another series relates to MCF7. The series can be described thus: Antiproliferative activity against human MCF7 cells incubated for 72 hrs by MTT assay. The class given is functional, cell-based. The conditions noted are these: MCF7, 72 h.
The subject of a further series is A549. The series can be described thus: Antiproliferative activity against human A549 cells incubated for 72 hrs by MTT assay. Conditions: A549, 72 h. The class given is functional, cell-based.
In series [1] the test system is HepG2. The series can be described thus: Antiproliferative activity against human HepG2 cells incubated for 72 hrs by MTT assay. The class given is functional, cell-based. Conditions: HepG2, 72 h.
Another series deals with SH-SY5Y. Briefly: Antiproliferative activity against human SH-SY5Y cells incubated for 72 hrs by MTT assay. In kind it is functional, cell-based.
Series [2] in a line: Cytotoxicity against human CCC-HPF1 cells assessed as decrease in cell viability incubated for 72 hrs by MTT assay. The conditions noted are these: CCC-HPF-1, 72 h. The class given is cell-based.
Series [3] relates to HepG2. Briefly: Antitumor activity against human HepG2 cells xenografted in nude mouse assessed as inhibition of tumor at 40 mg/kg administrated daily for 30 days post implantation by vernier caliper analysis relative to control. The conditions noted are these: HepG2, 720 h. In kind it is functional. (In general: A xenograft is tissue or cells of one species grown in another, often human tumour cells in immunodeficient mice.)

Series [4] is described as follows: Toxicity in nude mouse xenografted with human HepG2 cells assessed as change in body weight at 20 mg/kg administrated daily for 50 days post implantation. In kind it is organism-based. Conditions: in vivo, 1200 h.
A short description of series [5]: Toxicity in nude mouse xenografted with human HepG2 cells assessed as change in body weight at 40 mg/kg administrated daily for 50 days post implantation. The class given is organism-based. Conditions: in vivo, 1200 h.
The test system of series [6] is HepG2. Briefly: Disruption of mitochondrial membrane potential in human HepG2 cells assessed as cell shriveled at 1.5 uM to 5 uM incubated for 48 hrs by JC-1 dye based LSCM analysis. The class given is functional.
In series [7] the target is Epidermal growth factor receptor (Homo sapiens, UniProt P00533). Briefly: Inhibition of EGFR (unknown origin) using TK substrate incubated for 60 mins by FRET assay.
Sequence of Epidermal growth factor receptor (P00533 whole entry): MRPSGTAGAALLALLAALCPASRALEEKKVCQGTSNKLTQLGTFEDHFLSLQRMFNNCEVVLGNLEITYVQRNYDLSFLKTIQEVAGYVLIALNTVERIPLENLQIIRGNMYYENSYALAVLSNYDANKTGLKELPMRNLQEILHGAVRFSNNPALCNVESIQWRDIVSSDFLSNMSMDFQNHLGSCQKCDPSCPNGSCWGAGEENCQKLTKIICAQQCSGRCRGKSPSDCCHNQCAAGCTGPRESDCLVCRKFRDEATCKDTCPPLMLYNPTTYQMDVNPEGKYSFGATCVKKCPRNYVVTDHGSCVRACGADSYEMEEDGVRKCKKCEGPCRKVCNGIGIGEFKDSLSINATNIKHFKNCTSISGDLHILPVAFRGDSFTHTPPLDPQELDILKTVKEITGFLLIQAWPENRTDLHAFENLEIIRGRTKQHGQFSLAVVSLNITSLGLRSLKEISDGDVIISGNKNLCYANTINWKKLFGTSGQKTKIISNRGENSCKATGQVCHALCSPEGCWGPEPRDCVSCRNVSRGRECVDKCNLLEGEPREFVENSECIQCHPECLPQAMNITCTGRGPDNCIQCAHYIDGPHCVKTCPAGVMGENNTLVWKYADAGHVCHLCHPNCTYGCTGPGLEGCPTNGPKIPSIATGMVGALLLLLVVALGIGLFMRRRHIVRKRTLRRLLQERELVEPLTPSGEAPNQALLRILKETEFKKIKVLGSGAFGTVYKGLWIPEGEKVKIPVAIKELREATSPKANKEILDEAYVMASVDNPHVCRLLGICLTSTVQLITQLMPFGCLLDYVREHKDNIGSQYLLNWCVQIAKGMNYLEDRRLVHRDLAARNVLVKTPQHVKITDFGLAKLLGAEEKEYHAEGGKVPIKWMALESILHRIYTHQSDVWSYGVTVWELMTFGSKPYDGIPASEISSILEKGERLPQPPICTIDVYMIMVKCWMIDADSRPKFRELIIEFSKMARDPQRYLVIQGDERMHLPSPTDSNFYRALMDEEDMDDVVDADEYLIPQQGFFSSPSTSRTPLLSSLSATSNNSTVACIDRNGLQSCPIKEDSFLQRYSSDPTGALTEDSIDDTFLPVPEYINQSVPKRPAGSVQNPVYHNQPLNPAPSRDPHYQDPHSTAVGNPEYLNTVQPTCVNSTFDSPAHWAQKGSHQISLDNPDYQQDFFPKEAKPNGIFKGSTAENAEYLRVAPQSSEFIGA
The target in series [8] is Vascular endothelial growth factor receptor 2 (Homo sapiens, UniProt P35968). The series can be described thus: Inhibition of VEGFR2 (unknown origin) using TK substrate incubated for 60 mins by FRET assay.
Sequence of Vascular endothelial growth factor receptor 2 (P35968 whole entry): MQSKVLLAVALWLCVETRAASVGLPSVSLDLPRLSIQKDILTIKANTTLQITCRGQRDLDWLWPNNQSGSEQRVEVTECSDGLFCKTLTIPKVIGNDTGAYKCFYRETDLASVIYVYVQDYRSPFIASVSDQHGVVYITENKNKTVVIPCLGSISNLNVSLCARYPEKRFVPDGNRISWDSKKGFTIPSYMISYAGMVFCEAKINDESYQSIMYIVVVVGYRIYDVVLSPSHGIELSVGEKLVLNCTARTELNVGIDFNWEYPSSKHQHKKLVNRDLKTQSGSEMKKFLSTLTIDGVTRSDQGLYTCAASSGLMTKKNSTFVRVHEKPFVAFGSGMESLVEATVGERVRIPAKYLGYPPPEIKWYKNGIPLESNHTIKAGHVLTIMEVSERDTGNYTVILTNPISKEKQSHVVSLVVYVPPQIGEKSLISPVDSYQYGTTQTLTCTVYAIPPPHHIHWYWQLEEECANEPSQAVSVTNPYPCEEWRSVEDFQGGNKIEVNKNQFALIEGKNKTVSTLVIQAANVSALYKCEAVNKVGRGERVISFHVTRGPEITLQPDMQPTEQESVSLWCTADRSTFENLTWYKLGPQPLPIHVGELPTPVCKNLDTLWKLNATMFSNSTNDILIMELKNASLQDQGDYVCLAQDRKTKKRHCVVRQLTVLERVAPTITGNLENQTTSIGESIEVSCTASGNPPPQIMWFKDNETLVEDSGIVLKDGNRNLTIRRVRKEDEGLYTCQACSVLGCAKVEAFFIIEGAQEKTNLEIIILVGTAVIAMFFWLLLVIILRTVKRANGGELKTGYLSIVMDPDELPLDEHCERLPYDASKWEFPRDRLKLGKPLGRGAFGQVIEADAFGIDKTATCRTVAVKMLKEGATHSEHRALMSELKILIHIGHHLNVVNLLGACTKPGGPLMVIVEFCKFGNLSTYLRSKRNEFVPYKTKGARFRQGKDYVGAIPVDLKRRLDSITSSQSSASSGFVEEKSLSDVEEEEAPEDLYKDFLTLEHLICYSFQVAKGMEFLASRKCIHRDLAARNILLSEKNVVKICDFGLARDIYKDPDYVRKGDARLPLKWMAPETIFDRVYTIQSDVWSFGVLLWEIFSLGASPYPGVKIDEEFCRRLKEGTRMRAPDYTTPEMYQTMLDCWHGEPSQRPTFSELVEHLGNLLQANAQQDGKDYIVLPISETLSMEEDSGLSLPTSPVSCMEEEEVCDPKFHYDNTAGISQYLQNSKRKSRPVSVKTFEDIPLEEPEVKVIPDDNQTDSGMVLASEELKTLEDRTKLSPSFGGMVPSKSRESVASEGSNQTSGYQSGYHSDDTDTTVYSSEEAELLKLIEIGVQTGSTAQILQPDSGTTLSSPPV
Series [9] concerns HepG2. The series can be described thus: Induction of apoptosis in human HepG2 cells assessed as viable cells at 0.5 times IC50 incubated for 48 hrs by Annexin V-FITC and PI staining based flow cytometric analysis (reference value: 93.4%). The class given is functional. (In general: In flow cytometry, cells or beads pass a laser one at a time.)
For series [10], the system named is HepG2. The series can be described thus: Induction of apoptosis in human HepG2 cells assessed as late apoptotic cells at IC50 incubated for 48 hrs by Annexin V-FITC and PI staining based flow cytometric analysis (reference value: 3.47%). In kind it is functional.
Series [11] concerns HepG2. The series can be described thus: Disruption of mitochondrial membrane potential in human HepG2 cells at 1.5 uM to 5 uM incubated for 48 hrs by JC-1 dye based fluorescence spectrophotometric analysis. In kind it is functional, cell-based.
The subject of series [12] is HepG2. Briefly: Induction of apoptosis in human HepG2 cells assessed as cell shrinkage at 2 to 8 uM incubated for 48 hrs by optical microscopic method. In kind it is functional, cell-based.
In series [13] the test system is HepG2. The series can be described thus: Induction of apoptosis in human HepG2 cells assessed as early apoptotic cells at IC50 incubated for 48 hrs by Annexin V-FITC and PI staining based flow cytometric analysis (reference value: 1.75%). In kind it is functional.
A short description of series [14]: Toxicity in nude mouse xenografted with human HepG2 cells assessed as change in body weight at 20 to 30 mg/kg administrated daily for 50 days post implantation. In kind it is organism-based. Conditions: in vivo, 1200 h.
For series [15], the system named is HepG2. Briefly: Induction of apoptosis in human HepG2 cells assessed as late apoptotic cells at 2 times IC50 incubated for 48 hrs by Annexin V-FITC and PI staining based flow cytometric analysis (reference value: 3.47%). In kind it is functional.
Series [16] concerns HepG2. The series can be described thus: Induction of apoptosis in human HepG2 cells assessed as cell detachment at 2 to 8 uM incubated for 48 hrs by optical microscopic method. The class given is functional, cell-based.
Series [17] relates to HepG2. The series can be described thus: Induction of apoptosis in human HepG2 cells assessed as viable cells at IC50 incubated for 48 hrs by Annexin V-FITC and PI staining based flow cytometric analysis (reference value: 93.4%). In kind it is functional.
The test system of series [18] is HepG2. Briefly: Antitumor activity against human HepG2 cells xenografted in nude mouse assessed as suppression of tumor volume at 20 to 40 mg/kg administrated daily for 50 days post implantation by vernier caliper analysis. In kind it is functional, organism-based.
Series [19] relates to HepG2. The series can be described thus: Antitumor activity against human HepG2 cells xenografted in nude mouse assessed as inhibition of tumor growth administrated daily for 50 days post implantation by vernier caliper analysis. The class given is functional.
In series [20] the test system is HepG2. Briefly: Induction of apoptosis in human HepG2 cells assessed as necrotic cells at IC50 incubated for 48 hrs by Annexin V-FITC and PI staining based flow cytometric analysis (reference value: 1.36%). The class given is functional.
Series [21] deals with Platelet-derived growth factor receptor beta (Homo sapiens, UniProt P09619). Briefly: Inhibition of PDGFRbeta (unknown origin) using TK substrate incubated for 60 mins by FRET assay.
Sequence of Platelet-derived growth factor receptor beta (P09619 whole entry): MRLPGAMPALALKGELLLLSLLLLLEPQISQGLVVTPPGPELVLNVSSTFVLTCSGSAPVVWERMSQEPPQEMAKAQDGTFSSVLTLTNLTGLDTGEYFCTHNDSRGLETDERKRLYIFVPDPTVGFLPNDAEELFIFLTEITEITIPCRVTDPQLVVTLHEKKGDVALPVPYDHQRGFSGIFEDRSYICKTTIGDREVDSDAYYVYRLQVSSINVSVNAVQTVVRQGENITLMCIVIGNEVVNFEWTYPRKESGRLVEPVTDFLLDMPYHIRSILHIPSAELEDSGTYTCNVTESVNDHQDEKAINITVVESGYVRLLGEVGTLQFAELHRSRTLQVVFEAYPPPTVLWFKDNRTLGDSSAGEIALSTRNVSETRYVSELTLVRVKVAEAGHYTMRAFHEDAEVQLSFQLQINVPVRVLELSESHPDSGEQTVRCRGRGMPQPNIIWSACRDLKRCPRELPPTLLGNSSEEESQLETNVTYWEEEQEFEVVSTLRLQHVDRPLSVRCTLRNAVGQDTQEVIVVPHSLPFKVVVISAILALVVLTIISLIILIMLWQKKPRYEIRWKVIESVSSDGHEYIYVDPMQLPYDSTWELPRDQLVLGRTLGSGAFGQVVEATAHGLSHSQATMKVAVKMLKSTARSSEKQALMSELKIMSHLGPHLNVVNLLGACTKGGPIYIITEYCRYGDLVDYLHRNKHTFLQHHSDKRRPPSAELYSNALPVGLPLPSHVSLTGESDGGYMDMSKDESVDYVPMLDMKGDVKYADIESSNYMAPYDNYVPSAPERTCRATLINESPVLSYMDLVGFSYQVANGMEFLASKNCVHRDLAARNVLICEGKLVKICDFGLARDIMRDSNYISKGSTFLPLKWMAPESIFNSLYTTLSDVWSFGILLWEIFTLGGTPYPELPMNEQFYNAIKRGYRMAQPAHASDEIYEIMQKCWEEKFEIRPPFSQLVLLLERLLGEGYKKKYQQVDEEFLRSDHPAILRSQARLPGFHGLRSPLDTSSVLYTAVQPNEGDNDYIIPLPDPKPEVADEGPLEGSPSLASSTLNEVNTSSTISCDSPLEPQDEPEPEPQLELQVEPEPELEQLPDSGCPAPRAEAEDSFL
The test system of series [22] is HepG2. Briefly: Induction of apoptosis in human HepG2 cells assessed as necrotic cells at 0.5 times IC50 incubated for 48 hrs by Annexin V-FITC and PI staining based flow cytometric analysis (reference value: 1.36%). The class given is functional.
The test system of series [23] is HepG2. Briefly: Induction of apoptosis in human HepG2 cells assessed as late apoptotic cells at 0.5 times IC50 incubated for 48 hrs by Annexin V-FITC and PI staining based flow cytometric analysis (reference value: 3.47%). The class given is functional.
The subject of series [24] is HepG2. Briefly: Induction of apoptosis in human HepG2 cells assessed as decrease in cell number at 2 to 8 uM incubated for 48 hrs by optical microscopic method. The class given is functional, cell-based.
Series [25] concerns HepG2. Briefly: Induction of apoptosis in human HepG2 cells assessed as early apoptotic cells at 0.5 times IC50 incubated for 48 hrs by Annexin V-FITC and PI staining based flow cytometric analysis (reference value: 1.75%). The class given is functional.
The test system of series [26] is HepG2. The series can be described thus: Induction of apoptosis in human HepG2 cells assessed as necrotic cells at 2 times IC50 incubated for 48 hrs by Annexin V-FITC and PI staining based flow cytometric analysis (reference value: 1.36%). The class given is functional.
The subject of series [27] is HepG2. Briefly: Induction of ROS generation in human HepG2 cells assessed as increase in green fluorescence incubated for 48 hrs by DCFH-DA staining based LSCM method. In kind it is functional, cell-based.
The test system of series [28] is HepG2. The series can be described thus: Disruption of mitochondrial membrane potential in human HepG2 cells assessed as appearance of cell desquamation at 1.5 uM to 5 uM incubated for 48 hrs by JC-1 dye based LSCM analysis. In kind it is functional.
Series [29] relates to HepG2. Briefly: Induction of apoptosis in human HepG2 cells assessed as early apoptotic cells at 2 times IC50 incubated for 48 hrs by Annexin V-FITC and PI staining based flow cytometric analysis (reference value: 1.75%). In kind it is functional.
The subject of series [30] is HepG2. Briefly: Induction of apoptosis in human HepG2 cells assessed as viable cells at 2 times IC50 incubated for 48 hrs by Annexin V-FITC and PI staining based flow cytometric analysis (reference value: 93.4%). In kind it is functional.

pIC50: −log10 of the molar value. Calls of active or inactive are those of the source. The rule behind the calls is not given here.

`c1ccc(COc2ccc(Nc3ncnc4cc5c(cc34)OCCOCCOCCO5)cc2)cc1`: the negative-log IC50 (pIC50) in the series with DU-145 is < 4.00; in the series with MCF7 it was 5.08; in the series with A549, < 4.00; in the series on HepG2 [1] it was < 4.00; in the series with SH-SY5Y, 4.62; in series [2], < 4.00.

For `c1ccc(COc2ccc(Nc3ncnc4cc5c(cc34)OCCOCCOCCOCCO5)cc2)cc1`, the pIC50 was 5.06 in the series on DU-145; 4.92 in the series with MCF7; 4.53 in the series with A549; 4.93 in the series with HepG2 [1]; 5.28 in the series on SH-SY5Y; 4.47 in series [2].

Take `O=[N+]([O-])c1ccc(COc2cccc(Nc3ncnc4cc5c(cc34)OCCOCCOCCOCCO5)c2)cc1`: the pIC50 was 4.86 in the series with DU-145; 5.19 with MCF7; 4.70 with A549; 5.01 in the series with HepG2 [1]; 5.07 in the series with SH-SY5Y; < 4.00 in [2].

On to `c1ccc(COc2cccc(Nc3ncnc4cc5c(cc34)OCCOCCO5)c2)cc1`, for which the pIC50 was < 4.00 with DU-145; 4.39 in the series with MCF7; 5.12 in the series with A549; < 4.00 in the series with HepG2 [1]; 4.16 in the series on SH-SY5Y; < 4.00 in series [2].

For `c1ccc(COc2ccccc2Nc2ncnc3cc4c(cc23)OCCOCCOCCO4)cc1`, the pIC50 in the series with DU-145 was 4.86; in the series with MCF7, 4.20; in the series with A549 it was 5.16; in the series on HepG2 [1] it was 4.43; with SH-SY5Y, 4.01; in series [2], < 4.00.

On to `CNC(=O)c1cc(Oc2ccc(NC(=O)Nc3ccc(Cl)c(C(F)(F)F)c3)cc2)ccn1` [SORAFENIB], for which, in the series on HepG2 [3], the inhibition in vivo at 40 mg/kg came out at 100%. Also, the pIC50 is 4.08 in the series on DU-145; 4.42 in the series with MCF7; 4.59 in the series on A549; 5.11 in the series on HepG2 [1]; < 4.00 in the series with SH-SY5Y. The results for the Activity entry in series [4] and in series [5] were “Non-Toxic” and “Toxic”, respectively.

For `FC(F)(F)c1ccc(COc2ccc(Nc3ncnc4cc5c(cc34)OCCOCCOCCOCCO5)cc2)cc1`, the result in the series on HepG2 [6], with HepG2 [11], with HepG2 [12], in the series on HepG2 [16], in the series with HepG2 [18] and with HepG2 [24] was Active. In addition, the result in the series on HepG2 [28] was Active. Further, in the series with HepG2 [3], the inhibition in vivo at 40 mg/kg is 100%. Moreover, the pIC50 in series [7] is 6.41; in [8], 7.33; with DU-145, 5.06; in the series with MCF7, 5.00; in the series on A549, 5.07; with HepG2 [1] it was 5.48. The negative logarithm of the IC50 (pIC50) in series [21] was 6.17; in the series with SH-SY5Y, 5.67; in series [2] it was 4.42. Moreover, the Activity was 71.3% in the series on HepG2 [9]; 52.5% in the series on HepG2 [10]; 8.89% in the series with HepG2 [13]; “Non-Toxic” in [14]; 61.3% with HepG2 [15]; 35% with HepG2 [17]. Besides, the Activity with HepG2 [20] was 3.61%; with HepG2 [22], 1.01%; in the series on HepG2 [23], 24%; in series [5], “Toxic”; in the series on HepG2 [25] it was 3.72%; in the series with HepG2 [26], 1.35%. Further, the Activity result in the series with HepG2 [27] was “Dose-dependent effect”; with HepG2 [29] it was 8.27%; in the series on HepG2 [30], 29.1%. Moreover, the inhibition result in the series with HepG2 [19] was “Dose-dependent effect”.

As to `FC(F)(F)c1ccc(COc2cccc(Nc3ncnc4cc5c(cc34)OCCOCCOCCOCCO5)c2)cc1`, the pIC50 is 4.57 with DU-145; 5.07 in the series with MCF7; 5.07 with A549; 5.24 in the series with HepG2 [1]; 5.07 in the series with SH-SY5Y; 4.34 in series [2].

On to `FC(F)(F)c1ccc(COc2cccc(Nc3ncnc4cc5c(cc34)OCCOCCOCCO5)c2)cc1`, for which the negative logarithm of the IC50 (pIC50) in the series with DU-145 is 5.56; in the series on MCF7, 4.75; with A549, 4.60; in the series on HepG2 [1], 4.47; in the series with SH-SY5Y, 4.70; in series [2], 4.48.

`O=[N+]([O-])c1ccc(COc2ccc(Nc3ncnc4cc5c(cc34)OCCOCCO5)cc2)cc1`: the negative logarithm of the IC50 (pIC50) was < 4.00 in the series on DU-145; 4.40 in the series on MCF7; 5.06 in the series with A549; < 4.00 in the series on HepG2 [1]; 4.26 in the series on SH-SY5Y; 4.33 in series [2].

As usually defined, the pIC50 is the IC50 on a negative log10 scale, so that one unit is a factor of ten. By inhibition in vivo is commonly meant how much of the control response was suppressed.
